Data taken from patent US11091490B2, “3-amino-1,5-dihydro-pyrazolo[3,4-d]pyrimidin-4-ones as cyclin dependent kinase inhibitors” (Oncotyrol Center for Personalized Cancer Medicine GMBH, priority 2016, dated 2021).
≈ marks a conversion by molar mass, not a printed value. Where “and” joins values, the source holds several entries; their conditions need not be identical. Equal entries are not always repeated. Where two headings read alike, the source gives them in different places.

How the values were obtained:
[1] = test system: most CYP enzymes; assay: Drug-drug interactions: CYP inhibition; format: in vitro ADME
Description: In assays carried out in accordance with the “Guideline on the investigation of drug interactions”, CPMP/EWP/560/95/Rev. 1 Corr. 2, European Medicines Agency, Committee for Human Medicinal Products (CHMP) and “Guidance for Industry, Drug Interaction Studies—Study Design, Data Analysis, Implications for Dosing, and Labeling Recommendations”, U.S. Department of Health and Human Services.

[2] = test system: MDAMB468 (breast); assay: In vitro proliferation screening (Sulforhodamin B) MDAMB468; format: cell-based; conditions: Homo sapiens, MDA-MB-468; MDAMB468, 72 h; unit M
Description: (§1) In order to evaluate the antitumor activity of the compounds of the present invention, in particular compound 86, in solid tumors, an in vitro proliferation screening in a panel of 10 different human cancer cell lines derived from solid tumors (see Table 5, below) as a model system.
(§2) Six 10-fold dilutions of compound 86 have been prepared in DMSO, from 5×10^−9 M to 5×10^−4. Single data points have been tested for each concentration. The final concentration of DMSO was 0.1%. The duration of the treatment was 72 hours. The growth inhibition was measured by using Sulforhodamin B, a protein-staining assay in accordance with Vichai V et. al. Nat. Protoc. 2006; 1(3):1112-6. Activity of the agents was determined by evaluating the following parameters: IC50, GI50, IC10, GI10, TGI, LC50, IC90 and GI90 (if these values could be calculated).

[3] = Solubility in water; format: physicochemical
Description: The water solubility of preferred compound 86 and the compound of Example 49 of WO 02/967654 A2 have been compared.

[4] = test system: HeLa cervix carcinoma cells; assay: Annexin V/PI staining HeLa; format: cell-based; conditions: 0.1 μM, 12 h and 24 h
Description: (§3) In order to investigate the mode of action (MOA) related to the antitumor activity of the compounds of the present invention (in particular compound 86) in solid tumors and multiple myeloma, two experimental strategies were used to confirm the postulated MOA: 1) monitoring of apoptosis induction and 2) cell cycle analysis upon treatment with compound 86. Three cancer cell lines (LP-1, (multiple myeloma cells, DSMZ ACC 41), A375 (melanoma cells), and HeLa (cervix carcinoma cells)) as well as control cells (HS-5 bone marrow stroma cells, ATCC CRL-11882) were used to obtain mechanistic insight into the antitumor activity of compound 86.
(§4) Annexin V staining and Poly(ADP-ribose)-Polymerase 1 (PARP) protein cleavage was analyzed to identify a pro-apoptotic effect of compound 86 on tumor cells in accordance with the method of Koopman G, et. al. Blood 1994; 1; 84(5):1415-20. Annexin V allows the identification of cell surface changes that occur early during the apoptotic process by in situ detection, which is ideal for the analysis with adherent cells. Cleavage of PARP-1 by caspases is considered to be a hallmark of apoptosis and was therefore applied to monitor apoptosis induction after 24 h of treatment with 100 nM of compound 86.

[5] = test system: U2OS (bone); assay: In vitro proliferation screening (Sulforhodamin B) U2OS; format: cell-based, human; conditions: 72 h
Description: as §1, §2

[6] = Pharmacokinetic studies; conditions: in vivo
Description: Pharmacokinetic studies on the compounds of the present invention have been carried out in accordance with Endele R and Senn M., Int. J. Mass Spectrom. Ion Phys. 1983 January; 48:81-84. doi:10.1016/0020-7381(83)87033-8.

[7] = test system: NCIH82 (lung); assay: In vitro proliferation screening (Sulforhodamin B) NCIH82; format: cell-based; conditions: Homo sapiens, NCI-H82; NCIH82, 72 h; unit M
Description: as §1, §2

[8] = test system: RPMI-8226/GN1; assay: Multiple myeloma cells in mono- and co-culture with osteoblasts, imaging based detection (RPMI-8226); format: cell-based
Experimental: Compound 86 has been compared with the key compound of WO 2000/21926 A2 (Example 121) in an imaging based detection system.
Two different multiple myeloma (MM) cell lines (RPMI-8226 (DSMZ, ACC 402), NCI-H929 DSMZ, ACC 163) have been used and were cultured in mono- and co-culture with osteoblasts (OB) (Osteoblasts were obtained by culturing hMSCs with a differentiation inducing medium for two weeks) in accordance with the method of Karadag A. et al. Journal of Bone and Mineral Research Vol. 15, No. 10, 2000 page 1935-43.

[9] = test system: HT1080 (connective tissue); assay: In vitro proliferation screening (Sulforhodamin B) HT1080; format: cell-based, human; conditions: HT1080, 72 h
Description: as §1, §2

[10] = test system: DU145 (prostate); assay: In vitro proliferation screening (Sulforhodamin B) DU145; format: cell-based; conditions: Homo sapiens, DU-145; DU145, 72 h; unit M
Description: as §1, §2

[11] = test system: LP-1 multiple myeloma cells; assay: PARP cleavage Western blot LP1; format: cell-based; conditions: LP1, 24 h, 100 nM, FIG. 1B legend 0.08 μM
Description: as §3, §4

[12] = test system: HS-5 bone marrow stroma cells (control); assay: Cell cycle analysis (propidium iodide FACS) HS-5; format: cell-based; conditions: HS-5 control cells, 100 nM, 12 and 24 h
Description: as §3
Measuring of DNA content in cells is a well-established method for monitoring cell proliferation, cell cycle, fragmentation of nuclei (apoptosis) and DNA ploidy. Proliferating cells progress through various phases of the cell cycle (G0, G1, S, G2, and M phase). At different stages of the cell cycle and life cycle, cell nuclei contain different amounts of DNA. The DNA content in cell nuclei was analyzed by propidium iodide (PI) staining and FACS analysis after 12 and 24 h of treatment with 100 nM of compound 86 in accordance with the method of Desai Brijal M. et. al. PLOS Vol. 8; Issue 3; p. 1-11, 2013.

[13] = test system: BXPC3 (pancreas); assay: In vitro proliferation screening (Sulforhodamin B) BXPC3; format: cell-based, human; conditions: BXPC3, 72 h
Description: as §1, §2

[14] = test system: SKNAS (brain); assay: In vitro proliferation screening (Sulforhodamin B) SKNAS; format: cell-based; conditions: Homo sapiens, SK-N-AS, 72 h, unit M
Description: as §1, §2

[15] = test system: PBMC control cells; assay: In vitro proliferation screening (Sulforhodamin B) PBMC control cells; format: cell-based; conditions: 72 h
Experimental: as §2

CCN(CC)CC(=O)Nc1ccc(Cc2nc3c(c(N(C)C)nn3-c3c(Cl)cc(S(N)(=O)=O)cc3Cl)c(=O)[nH]2)cc1 [Compound 86, N-{4-[1-(2,6-Dichloro-4-sulfamoyl-phenyl)-3-dimethylamino-4-oxo-4,5-dihydro-1H-pyrazolo[3,4-d]pyrimidin-6-ylmethyl]-phenyl}-2-diethylamino-acetamide]
inhibitory activity of most CYP enzymes [1]: only weak inhibitory activity | GI50 [2]: 38.9 nM | IC50 [2]: 43 nM | solubility ([3]; aqueous buffer, pH 2.0, read-out: Solubility in water at pH 2.0): 129 µM (≈ 80.2 µg/mL) | solubility ([3]; pH 7.4, aqueous buffer, read-out: Solubility in water at pH 7.4): 105 µM (≈ 65.3 µg/mL) | induction of apoptosis (Annexin V/PI staining) [4]: specific induction of apoptosis | induction of apoptosis (Annexin V/PI staining) ([4]; listed as Otviciclib): reproducible induction of apoptosis | growth inhibitory response in words [5]: responded rather weakly in the micromolar range | GI50 ([5]; Homo sapiens, unit M): 94.2 nM | IC50 ([5]; Homo sapiens, unit M): 103 nM | oral bioavailability [6]: display oral bioavailability | GI50 [7]: 16.5 nM | IC50 [7]: 21.3 nM | EC50 ([8]; Homo sapiens, RPMI-8226, RPMI-8226/GN1, co-culture with osteoblasts, read-out: co-culture (+ OB) EC50): 140 nM | EC50 ([8]; Homo sapiens, RPMI-8226, RPMI-8226/GN1, mono-culture, read-out: mono-culture EC50): 140 nM | EC50 ([8]; RPMI-8226/GN1, co-culture with osteoblasts, read-out: co-culture (+ OB) EC50): 220 nM and 180 nM | EC50 ([8]; RPMI-8226/GN1, mono-culture, read-out: mono-culture EC50): 190 nM and 120 nM | growth inhibitory response in words [9]: growth inhibition in the middle nanomolar range | GI50 ([9]; Homo sapiens, HT-1080, unit M): 36.4 nM | IC50 ([9]; Homo sapiens, HT-1080, unit M): 38 nM | GI50 [10]: 32.4 nM | IC50 [10]: 37.3 nM | PARP cleavage [11]: specific induction of PARP cleavage | PARP cleavage ([11]; listed as Otviciclib): induction of PARP cleavage | cell cycle profile (DNA content) [12]: remained unchanged | growth inhibitory response in words [13]: growth inhibition in the middle nanomolar range | GI50 ([13]; Homo sapiens, BXPC-3, unit M): 36.3 nM | IC50 ([13]; Homo sapiens, BXPC-3, unit M): 41.8 nM | GI50 [14]: 41.2 nM | IC50 [14]: 74.3 nM | response to treatment (growth inhibition) [15]: resistant
